Test results taken from patent US20140113306A1, “DIAGNOSTIC AND SCREENING METHODS FOR INFLAMMATION” (Rutgers, The State University of New Jersey, priority 2012, published 2014).

Columns and labels:
[1] = system: non-diabetic donor leukocytes; experiment: Plasma exchange: diabetic patient plasma added to non-diabetic donor cellular fraction; type: cell-based, human; conditions: cellular fraction treated 1 hour before exchange; leukocytes isolated 4 hours post-exchange
Procedure: (A) Blood samples from a non-diabetic (N) and a type 2 diabetic patient were separated into plasma and cellular fractions (cellular F.) and mutually exchanged. Thus, plasma derived from the non-diabetic donor was added to the diabetic patient cellular fraction, and vice versa. Leukocytes were isolated at indicated time post-exchange, lysed and analyzed by immunoblotting. (B) Blood samples from a non-diabetic donor were treated with insulin (0.1 unit/ml) for the indicated time (lanes 1-7) or with endotoxin for 2 hours (lane 8) (C) Blood samples from a non-diabetic donor were untreated (UN) or treated for 1 hour with polymyxin (50 μg/ml) or CL-095 (30 μM). Endotoxin (Endo; 10 ng/ml) was next added to specified samples (lanes 2-4). Leukocytes were isolated 2 hours tater. […] Samples were analyzed as in (A).
For the plasma mixing experiments, the blood samples were sedimented at unit gravity for 1.5 hours. […] The leukocytes were subsequently isolated, lysed, and analyzed by immunoblotting.
Next, non-diabetic donor leukocytes and leukocytes from two type 2 diabetic patients were either untreated, or treated with either polymyxin or CLI-095 prior to the plasma/leukocytes exchange. As shown above, pS6K1, pIRS-1, and HIF-1α expression were all detected in non-diabetic donor leukocytes following exposure to diabetic patients plasma. […]

TLR4 = experiment: Endotoxin/TLR4 signaling block in non-diabetic donor blood challenged with endotoxin in vitro; type: cell-based, human; conditions: 1 hour pretreatment, polymyxin 50 μg/ml or CLI-095; endotoxin 10 ng/ml 2 hours
Procedure: (§1) (A) Blood samples from a non-diabetic (N) and a type 2 diabetic patient were separated into plasma and cellular fractions (cellular F.) and mutually exchanged. Thus, plasma derived from the non-diabetic donor was added to the diabetic patient cellular fraction, and vice versa. Leukocytes were isolated at indicated time post-exchange, lysed and analyzed by immunoblotting. (B) Blood samples from a non-diabetic donor were treated with insulin (0.1 unit/ml) for the indicated time (lanes 1-7) or with endotoxin for 2 hours (lane 8) (C) Blood samples from a non-diabetic donor were untreated (UN) or treated for 1 hour with polymyxin (50 μg/ml) or CL-095 (30 μM). Endotoxin (Endo; 10 ng/ml) was next added to specified samples (lanes 2-4). Leukocytes were isolated 2 hours tater. (D and E) Blood samples obtained from a non-diabetic donor and two type 2 diabetic patients (identified as diabetic 1 and diabetic 2) were all separated into plasma and cellular fraction. The cellular fractions were either untreated (lane 4) or treated with polymyxin (lanes 5 and 8) or CLI-095 (lanes 6 and 9) for 1 hour. The samples shown in lanes 1-3 were not subjected to plasma exchange. (D) Plasma derived from diabetic 1 (lanes 4-6) or diabetic 2 (lanes 7-9) was added to the non-diabetic donor cellular fractions and (E) vice versa. The leukocytes were isolated at 4 hours post-exchange. Samples were analyzed as in (A).
(§2) Endotoxin (lipopolysaccharide from Escherichia coli 0111B4, Sigma, 10 ng/ml). Insulin (Humalog Mix 50/50; Lilly) was used at the indicated concentrations (0.05-1 unit/ml), Polymyxin (Invivogen, 50 μg/ml), CLI-095 (Invivogen; 3 μM), LY294002 (Cayman Chemical; 10 μM), Rapamycin (Tocris Bioscience; 100 nM), YC-1 (Sigma; 30 μM), Acriflavine (ACF; Sigma; 5 μM)
(§3) Human Subjects were enrolled in the study following the Institutional Review Board of Rutgers Robert Wood Johnson Medical School approval. Written informed consent was obtained from all participates prior to inclusion in the study. Blood was drawn into EDTA-containing tubes. To isolate leukocytes, lysis buffer (bicarbonate-buffered ammonium chloride solution, 0.826% NH4Cl, 0.1% KHCO3, 0.0037% Na4EDTA in H2O) was added at a ratio of 20:1 (lysis buffer/blood). Once the erythrocytes lysed, the samples were centrifuged for […] at 400×g. The leukocyte pellet was washed once with phosphate-buffered saline. The pellet was suspended in RIPA buffer (1% Triton X-100, 1% deoxycholic acid, 10 mM Tris-HCl, pH 7.2, 158 mM NaCl, 0.1% SDS, and 1 mM PMSF and complete protease inhibitor mixture (Roche Applied Science)). Lysates containing equal protein amounts were analyzed by immunoblotting. Where indicated, endotoxin, insulin, and/or inhibitors were added to the whole blood samples prior to leukocyte isolation.
To determine whether endotoxin is the component in diabetic patient plasma that regulates leukocyte activation, endotoxin/TLR4 signaling was blocked using two pharmacologic inhibitors, polymyxin and. CLI-095. Polymyxin is a natural polypeptide antibiotic that binds the lipid A moiety of endotoxin, and consequently interferes with endotoxin binding to TLR4. CLI-095, also known as TAK-242, is a specific TLR4 signaling inhibitor. As leukocytes express multiple Toll-like receptors (TLR) including TLR4, which binds endotoxin, TLR4 functions in the regulation of Akt/S6K1/mTOR axis is of interest.

human leukocytes = experiment: Ex vivo whole blood pretreated with inhibitors, then endotoxin; leukocyte Western blotting and ATP analyses; type: cell-based; conditions: for autophagy in endotoxin-treated leukocytes: FIG. 7B: LY 10 μM 30 min, RAPA 100 nM 2 hours, YC-1 30 μM 30 min, ACF 5 μM 2 hours, then endotoxin 10 ng/ml 2 hours; for endotoxin-induced AMPKα degradation (change in AMPKα expression) / endotoxin-induced autophagy (LC3-I/LC3-II) / endotoxin-induced decline in ATP levels / endotoxin-induced HIF-1α expression: whole blood treated 2 hours with inhibitor prior to endotoxin 10 ng/ml
Procedure: (A) Blood samples were treated with endotoxin (LPS; […]) for the indicated time. (B-D) Blood samples were untreated (control), treated for 2 hours with DMSO (vehicle), or the specified inhibitors prior to the addition of endotoxin (10 ng/ml). The inhibitors tested included: LY294002 (LY), Rapamycin (RAPA), YC-1, acriflavine (ACF), metformin (Met) and SRT1720 (SRT). Leukocytes were isolated at the indicated time post-endotoxin treatment and lysed. Lysates were subjected to Western blotting analyses, and where shown, ATP analyses. Details are provided in the supplement. (E) Proposed model for endotoxin-induced metabolic derangement in human leukocytes.
(§4) FIG. 7. provides the Toll-like receptor 4 signaling pathway in human leukocytes and the antagonistic effect of insulin. (A) Blood samples were treated with endotoxin (10 ng/ml) for the indicated time. (B) Blood samples were untreated (UN), or treated with DMSO (vehicle; 0.05%; 2 hours), LY294002 (LY; 10 μM; 30 min), rapamycin (RAPA; 100 nM, 2 ‘hours), YC-1 (30 μM; 30 min), or acriflavine (ACF; 5 μM; 2 hours). The samples shown in lanes 3-8 were subsequently treated with endotoxin (10 ng/ml) for 2 hours. (C) Blood samples were untreated (UN; lane 1), treated with endotoxin (10 ng/ml; lane 2) for 2 hours, or with insulin (1 unit/ml) for 2 hours (lane 3) or 1 hour (lane 4). The samples shown in lanes 5-9 were treated with endotoxin (10 ng/ml) plus insulin at the indicated concentration (1-0.05 unit/ml) for 2 hours, (D) Blood samples were treated with insulin (0.1 unit/ml) plus endotoxin (10ng/ml) for the indicated time, or with endotoxin alone (Endo, 10 ng/ml) for 2 hours. Leukocytes were isolated, lysed, and analyzed as described in FIG. 5. (E) Model describing the pattern of signaling indicators detected in leukocytes treated with endotoxin as compared to insulin.
To examine the signaling events linking endotoxin induced responses ex vivo with the altered metabolic/bioenergetic profile, the inventors examined the effect of pharmacological inhibitors implicated in the regulation of HIF-1α expression in other model systems. […] Furthermore, they indicate that distinct PI-3K effectors regulate HIF-1α stabilization and AMPKα degradation.
To examine the effect of metformin on human leukocytes bioenergetics, whole blood samples were pretreated with metformin ex vivo prior to the addition of endotoxin.
as §2, §3

liver = conditions: pretreatment, endotoxin challenge; cited from earlier work
[2] = system: endotoxin-treated leukocytes; experiment: Insulin plus endotoxin in the in vitro whole blood system; leukocyte immunoblotting; type: cell-based, human
Procedure: as §4, §2, §3
Following food intake, especially if high in fat, human leukocytes might be exposed to increases in both insulin and endotoxin. Therefore, the combined effects of insulin and endotoxin on leukocytes were examined using the in vitro whole blood system. […] Insulin at a dose as low as 0.1 unit/ml also delayed onset of pAkt and pS6K1 in endotoxin-treated leukocytes (FIG. 7D).

leukocytes = experiment: Insulin treatment of whole blood from non-diabetic individuals; leukocyte immunoblotting; type: cell-based, human; conditions: insulin alone 0.1 unit/ml
Procedure: as §1, §2, §3
To establish the nature of the circulating factor enriched, in plasma from diabetics, multiple candidates were considered. As leukocytes express insulin receptor and circulating insulin is high in many type 2 and treated type 1 diabetic patients, insulin was chosen as the primary candidate. However, the insulin-signaling pathway in leukocytes is poorly characterized.

[3] = diabetics treated with metformin; cited from earlier work
[4] = insulin 0.1 unit/ml plus endotoxin 10 ng/ml
[5] = insulin higher than 0.1 unit/ml plus endotoxin 10 ng/ml, 2 hours

CCOC(=O)C1=CCCC[C@H]1S(=O)(=O)Nc1ccc(F)cc1Cl [CLI-095]
pS6K1, pIRS-1, and HIF-1α expression following exposure to diabetic patients plasma [1]: inhibited | HIF-1α expression upon challenge with endotoxin (TLR4): prevented | pIRS-1 upon challenge with endotoxin (TLR4): prevented | pS6K1 upon challenge with endotoxin (TLR4): prevented

acriflavine
autophagy in endotoxin-treated leukocytes (human leukocytes): prevented | endotoxin-induced AMPKα degradation (change in AMPKα expression) (human leukocytes): did not prevent | endotoxin-induced autophagy (LC3-I/LC3-II) (human leukocytes): inhibited | endotoxin-induced decline in ATP levels (human leukocytes): inhibited

O=C(Nc1ccccc1-c1cn2c(CN3CCNCC3)csc2n1)c1cnc2ccccc2n1 [SRT1720]
endotoxin-induced AMPKα degradation (change in AMPKα expression) (human leukocytes): did not | endotoxin-induced HIF-1α expression (human leukocytes): block

Oc1ccc(C=Cc2cc(O)cc(O)c2)cc1 [Resveratrol, resveratrol]
HIF-1α expression in the liver (liver): prevents | Sirt1 degradation in the liver (liver): prevents | autophagy in the liver (liver): prevents

insulin: Insulin (Humalog Mix 50/50; Lilly)
signaling pattern of leukocytes ([2]; endotoxin plus insulin at <0.1 unit/ml): the pattern observed in leukocytes treated with endotoxin alone | onset of pAkt [2, 4]: delayed onset | onset of pS6K1 [2, 4]: delayed onset | HIF-1α expression [2, 5]: suppressed | TLR4 expression [2, 5]: suppressed | autophagy [2, 5]: suppressed | dephosphorylation of Raptor [2, 5]: suppressed | pIRS-1 [2, 5]: suppressed | Raptor dephosphorylation (leukocytes): failed to induce | increase in HIF-1α expression (leukocytes): failed to induce | increase in autophagy (leukocytes): failed to induce | pAkt (leukocytes): triggered increases | pIRS-1 (leukocytes): failed to induce | pS6K1 (leukocytes): triggered increases

OCc1ccc(-c2nn(Cc3ccccc3)c3ccccc23)o1 [YC-1, 3-(5′-hydroxymethyl-2′-furyl)-1-benzylindazole]
autophagy in endotoxin-treated leukocytes (human leukocytes): prevented | endotoxin-induced AMPKα degradation (change in AMPKα expression) (human leukocytes): did not prevent | endotoxin-induced autophagy (LC3-I/LC3-II) (human leukocytes): inhibited | endotoxin-induced decline in ATP levels (human leukocytes): inhibited

polymyxin
pS6K1, pIRS-1, and HIF-1α expression following exposure to diabetic patients plasma [1]: inhibited | HIF-1α expression upon challenge with endotoxin (TLR4): prevented | pIRS-1 upon challenge with endotoxin (TLR4): prevented | pS6K1 upon challenge with endotoxin (TLR4): prevented

CN(C)C(=N)N=C(N)N [metformin]
less cancer than diabetics treated with insulin [3]: 25-40% | AMPKα phosphorylation (human leukocytes; metformin alone, no endotoxin): induced | AMPKα phosphorylation (Thr 172) (human leukocytes; metformin pretreatment combined with endotoxin): induced | endotoxin-induced AMPKα degradation (change in AMPKα expression) (human leukocytes): prevents | endotoxin-induced HIF-1α expression (human leukocytes): prevents | endotoxin-induced AMPKα degradation (change in AMPKα expression) (human leukocytes; listed as Metformin): inhibited | endotoxin-induced HIF-1α expression (human leukocytes; listed as Metformin): inhibited
